According to patent US20140004243A1, “SALTY TASTE ENHANCER” (AJINOMOTO CO., INC., priority 2011, published 2014):

target: T1, Human ENaC δ, β and γ subunit (Homo sapiens, UniProt P51168+P51170+P51172); experiment: Measurement of ENaC activation potency (MED) in ENaC-expressing oocyte, Two Electrode Voltage Clamp; assay type: cell-based; conditions: minimum effective dose at which current started to increase; ENaC-expressing African clawed frog oocyte; smaller MED = higher ENaC activation potency
T1 construct: expressed in transfected cells; host or cells: Xenopus laevis (African clawed frog) oocytes injected with cRNA
T1 sequence (P51172 1-802): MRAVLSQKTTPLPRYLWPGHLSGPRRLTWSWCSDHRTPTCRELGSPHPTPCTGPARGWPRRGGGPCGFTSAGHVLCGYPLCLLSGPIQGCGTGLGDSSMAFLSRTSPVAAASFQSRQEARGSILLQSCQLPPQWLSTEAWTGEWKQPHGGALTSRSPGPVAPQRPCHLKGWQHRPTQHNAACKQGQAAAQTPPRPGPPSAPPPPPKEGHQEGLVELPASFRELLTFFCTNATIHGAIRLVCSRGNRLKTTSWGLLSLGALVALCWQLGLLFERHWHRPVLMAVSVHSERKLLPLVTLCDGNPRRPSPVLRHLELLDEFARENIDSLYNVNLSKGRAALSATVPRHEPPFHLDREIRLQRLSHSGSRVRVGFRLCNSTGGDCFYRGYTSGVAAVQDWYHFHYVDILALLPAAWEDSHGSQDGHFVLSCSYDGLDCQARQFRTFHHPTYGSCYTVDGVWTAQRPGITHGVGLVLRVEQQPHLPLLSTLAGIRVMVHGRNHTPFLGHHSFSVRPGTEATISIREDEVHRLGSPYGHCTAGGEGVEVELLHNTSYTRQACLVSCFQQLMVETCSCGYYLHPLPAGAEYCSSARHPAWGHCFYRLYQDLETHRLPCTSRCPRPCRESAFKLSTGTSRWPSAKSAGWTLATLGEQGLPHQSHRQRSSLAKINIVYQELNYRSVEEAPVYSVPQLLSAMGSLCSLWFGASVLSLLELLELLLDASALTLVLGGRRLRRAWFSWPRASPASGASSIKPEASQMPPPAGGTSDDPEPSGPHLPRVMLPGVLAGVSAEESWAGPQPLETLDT
T1 sequence (P51168 1-640): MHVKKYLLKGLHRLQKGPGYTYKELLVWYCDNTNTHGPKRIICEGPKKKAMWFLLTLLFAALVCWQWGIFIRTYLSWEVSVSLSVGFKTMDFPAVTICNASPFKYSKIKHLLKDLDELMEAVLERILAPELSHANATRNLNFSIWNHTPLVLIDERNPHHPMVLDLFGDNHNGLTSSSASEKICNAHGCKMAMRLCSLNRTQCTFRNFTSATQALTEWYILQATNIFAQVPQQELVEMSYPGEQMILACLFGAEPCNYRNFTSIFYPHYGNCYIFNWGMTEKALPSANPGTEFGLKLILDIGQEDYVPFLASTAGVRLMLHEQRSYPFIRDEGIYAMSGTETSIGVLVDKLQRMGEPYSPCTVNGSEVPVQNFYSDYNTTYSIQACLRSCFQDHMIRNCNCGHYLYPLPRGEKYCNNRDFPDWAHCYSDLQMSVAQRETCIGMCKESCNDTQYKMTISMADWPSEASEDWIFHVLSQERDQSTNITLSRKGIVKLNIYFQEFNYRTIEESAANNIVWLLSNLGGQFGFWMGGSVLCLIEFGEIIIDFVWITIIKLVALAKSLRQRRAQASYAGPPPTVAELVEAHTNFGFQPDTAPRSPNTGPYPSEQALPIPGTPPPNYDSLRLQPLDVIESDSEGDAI
T1 sequence (P51170 1-649): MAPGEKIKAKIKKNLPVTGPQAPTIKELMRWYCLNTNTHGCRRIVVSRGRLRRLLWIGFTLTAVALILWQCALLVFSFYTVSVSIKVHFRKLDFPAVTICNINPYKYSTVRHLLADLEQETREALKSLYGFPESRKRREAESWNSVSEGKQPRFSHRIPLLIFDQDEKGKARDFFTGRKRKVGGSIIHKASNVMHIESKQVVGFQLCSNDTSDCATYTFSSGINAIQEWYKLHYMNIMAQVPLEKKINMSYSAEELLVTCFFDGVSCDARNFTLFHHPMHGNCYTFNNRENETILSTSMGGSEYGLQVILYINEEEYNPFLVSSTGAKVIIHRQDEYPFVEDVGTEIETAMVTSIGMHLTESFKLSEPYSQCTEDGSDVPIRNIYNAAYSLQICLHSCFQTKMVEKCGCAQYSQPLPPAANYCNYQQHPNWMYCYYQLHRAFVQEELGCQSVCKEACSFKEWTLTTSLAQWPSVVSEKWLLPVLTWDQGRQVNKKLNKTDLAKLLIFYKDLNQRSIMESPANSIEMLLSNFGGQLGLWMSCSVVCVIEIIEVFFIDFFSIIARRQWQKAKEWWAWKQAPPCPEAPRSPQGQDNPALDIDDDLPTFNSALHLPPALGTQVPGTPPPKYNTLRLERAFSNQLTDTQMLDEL
Procedure: ENaC activation current value, namely, the inward current in ENaC-expressing oocyte was measured as follows.
According to the method described in Motonao Nakamura, Takao Shimizu: Experiment of African clawed frog oocyte, Experimental Medicine Vol. 11, No. 3, 224-232 (1993), oocyte was collected from African clawed frog, […], and the current value was measured by a Two Electrode Voltage Clamp technique. In the present invention, ND96 (96 mM NaCl, 2 mM KCl, 1 mM MgCl2, 5 mM Hepes, 1.8 mM CaCl2, pH 7.6) was used instead of MBS buffer in the above-mentioned document. Injector NANOLITER 2000 manufactured by World Precision Instruments was used for microinjection, OpusXpress 6000A manufactured by Molecular Devices was used for current value measurement by a Two Electrode Voltage Clamp technique, and Clampfit 10.2 software manufactured by Molecular Devices was used for data analysis.
Human ENaC δ, β and γ subunit genes shown by SEQ ID NOs: 1, 2 and 3, respectively, in the Sequence Listing were each cloned into a plasmid vector, and used as a template DNA for cRNA synthesis. cRNA was synthesized using MEGAscript kit manufactured by Ambion and according to the method of the manual of the manufacturer.
A mixture of the same amount of ENaC […] cRNA (0.4 to 0.8 μg/μL), and β and γ subunits cRNA (0.4 μg/μL) was injected into the oocyte of African clawed frog at […] per oocyte, and the oocyte was cultured for 16 hr-72 hr. Thereafter, the oocyte was set on a measuring apparatus OpusXpress 6000A, the electrodes were inserted into the oocyte, the voltage was clamped at a level lower by −30 mV than the resting membrane potential by a Two Electrode Voltage Clamp technique, and the current value was measured.
To measure the ENaC activation potency, oocyte was stimulated with each test compound, and the minimum effective dose (hereinafter to be abbreviated as MED) of the compound at the time point when the electric current started to increase was measured. In this case, whichever smaller value of the minimum effective dose of the stimulation compound that increased the current value by not less than 10%, and the minimum effective concentration of the compound that increased, by not less than 25%, the electric current increase value due to the stimulation by 5 μM capsazepine (CAS NO.: 138977-28-3), as compared to the current value before addition of the compound and without stimulation, was taken as MED. A smaller MED means higher ENaC activation potency.
Each test compound was directly dissolved in ND96, or first dissolved in dimethyl sulfoxide (DMSO) to 100 mM, and then prepared by diluting the solution with ND96 to a concentration used for the evaluation. The concentration of the test compound in ND96 was prepared to various concentrations within the range of 0.1 nM to 300 μm.
ND96 as a perfusion fluid was flown at a rate of 0.5 mL/min through the measuring apparatus OpusXpress 6000A on which ENaC-expressing oocyte was set, the perfusion fluid was temporarily stopped every 3 minutes to add a test compound solution (0.25 mL) dissolved in ND96 at a rate of 0.5 mL/min. In this way, the test compound was contacted with ENaC-expressing oocyte, and whether ENaC is activated by the compound was examined by measuring the current value. After addition of the test compound, feeding of the perfusion fluid was resumed to wash away the compound to be ready for the next addition of the compound.
The compound was added successively from a low concentration to a high concentration to stimulate ENaC-expressing oocyte. The concentrations actually added was, for example, 1 nM, 3 nM, 10 nM, 30 nM, 100 nM, 300 nM; 1 μM, 3 μM, 10 μm, 30 μm, 100 μm, 300 μm; 1.2 μM, 6 μM, 30 μm, 150 μm of one test compound. The compound was added from low concentrations to high concentrations at 3 min intervals. […]

Row | Compound | MED [µM]
1 | C[C@@H](NC(=S)N[C@H](Cc1ccc(O)cc1)C(=O)O)c1cccc(O)c1 [Example 109] | 0.3
2 | OCCNC(=S)NCc1ccccc1 [Example 15] | 30
3 | COC[C@@H](NC(=S)NCCc1ccccc1)c1ccccc1 [Example 75] | 1
4 | COc1cc(CNC(=S)NCCc2ccccc2)cc(OC)c1 [Example 67] | 10
5 | CC(C)(C)OC(=O)Nc1cccc(CNC(=S)NCCc2ccccc2)c1 [Example 78, tert-butyl 3-{[3-(2-phenylethyl)thioureido]methyl}phenylcarbamate] | 10
6 | ON(Cc1ccccc1)C(=S)NCCc1ccccc1 [Example 69] | 1
7 | C[C@@H](NC(=S)N[C@H](C)c1ccccc1)c1ccccc1 [Example 25] | 10
8 | Oc1ccc(CNC(=S)NCCc2ccccc2)cc1 [Example 43] | 1
9 | S=C(NCCc1ccccc1)NCc1cccc2ccccc12 [Example 20] | 3
10 | S=C(NCCc1ccccc1)NCc1nc2ccccc2[nH]1 [Example 33] | 3
11 | O=C(O)[C@@H](NC(=S)NCCc1ccccc1)c1ccccc1 [Example 101] | 1
12 | C[C@@H](NC(=S)NCCc1ccccc1O)c1cccc(O)c1 [Example 89, 1-[2-(2-hydroxyphenyl)ethyl]-3-[(R)-1-(3-hydroxyphenyl)ethyl]thiourea] | 0.06
13 | O=C1C(c2ccccc2)NC(=S)N1CCc1ccccc1 (stereo not shown) [Example 49] | 30
14 | Oc1cccc(CNC(=S)NCCc2ccccc2)c1 [Example 44] | 1
15 | O=C(O)c1ccccc1NC(=S)Nc1ccc(Cl)cc1 [Example 117] | 0.3
16 | NC(=O)[C@@H](NC(=S)NCCc1ccccc1)c1ccccc1 [Example 103] | 3
17 | NC(=O)CNC(=S)NCc1ccccc1 [Example 53] | 30

Row | Compound | MED [µM]
18 | N#Cc1ccc(CNC(=S)NCCc2ccccc2)cc1 [Example 65] | 3.3
19 | CN(Cc1ccc(O)c(O)c1)C(=S)NCCc1ccccc1 [Example 42, 1-(3,4-dihydroxybenzyl)-1-methyl-3-(2-phenylethyl)thiourea] | 1
20 | CC[C@@H](NC(=S)NCCc1ccccc1O)c1ccccc1 [Example 98] | 1
21 | C[C@@H](NC(=S)N[C@@H](Cc1ccccc1)C(=O)O)c1cccc(O)c1 [Example 108] | 0.3
22 | COC(=O)c1ccccc1NC(=S)N(C)CCc1ccccc1 [Example 37] | 3
23 | Oc1ccc(CCNC(=S)NCc2ccccc2)cc1 [Example 17] | 3
24 | CS(=O)(=O)Nc1cccc(CNC(=S)NCCc2ccccc2)c1 [Example 86, 1-[3-(mesylamino)benzyl]-3-(2-phenylethyl)thiourea] | 1
25 | COc1ccccc1CCNC(=S)NCc1ccccc1 [Example 29] | 3.3
26 | COc1cccc(OC)c1CNNC(=S)N[C@H](C)c1ccccc1 [Example 93, 1-(2,6-dimethoxybenzyl)-4-((R)-1-phenylethyl)thiosemicarbazide] | 30
27 | C[C@@H](NC(=S)NNCc1ccccc1O)c1ccccc1 [Example 90] | 1
28 | CN(Cc1ccc(O)c(O)c1)C(=S)NCCc1ccc(Cl)cc1 [Example 5] | 1
29 | OC[C@H](Cc1ccccc1)NC(=S)NCc1ccccc1 [Example 57] | 1
30 | Oc1ccccc1CNC(=S)NCCc1ccccc1 [Example 61] | 30
31 | C[C@@H](NC(=S)Nc1c(O)cccc1O)c1ccccc1 [Example 91] | 1
32 | COc1ccccc1CNC(=S)NCCc1ccccc1 [Example 28] | 1 to 3
33 | C[C@@H](NC(=S)NCC(O)c1cc(Cl)ccc1O)c1cccc(O)c1 (stereo partly shown) [Example 115] | 0.06 to 0.1
34 | C[C@@H](NC(=S)NCC(O)c1ccccc1O)c1cccc(O)c1 (stereo partly drawn) [Example 105, 1-[2-(2-hydroxyphenyl)-2-hydroxyethyl]-3-[(R)-1-(3-hydroxyphenyl)ethyl]thiourea] | 0.06 to 0.1
